Read-outs that look alike come from different tables or passages of the source. No end group written: not given here.
What was measured:
[1] = biological target: allosteric site on the α7 nicotinic-receptor (Rattus norvegicus, UniProt Q05941); experiment: Binding affinity for the allosteric site of the α7 nicotinic-receptor, using tests for viability
[2] = biological target: T1, α7nAChR (the α7 nicotinic acetylcholine receptor), allosteric site (Rattus norvegicus, UniProt Q05941); experiment: [3H] Ivermectin binding assay on PC12 cell membranes
T1 construct: [3H]; host or cells: wild-type PC12 cells
Protocol: PC12 membranes where obtained to perform binding assays. PC12 cells were grown until confluence on 100 mm plates. Growth medium was removed and ice-cold 50 mM Tris-HCl buffer (pH 7.4) containing 4.5 μg/μ1 aprotinin and 0.1 mM phenylmethylsulphonylfluoride (PMSF) were added. Cells were mechanically detached and pelleted by centrifugation (1040×g) for 4 minutes at 4° C. Pellets were homogenized with a Polytron and centrifuged (13000×g) for 20 minutes at 4° C. The pellets were resuspended in fresh buffer and incubated at 37° C. for 10 minutes to remove endogenous neurotransmitters. The samples were subsequently re-centrifuged. The final pellet was resuspended in buffer and the protein concentration determined using the Bradford Reagent (Sigma-Aldrich, St. Louis, MO). The cell membrane preparation was stored at −80° C.
For the binding with PC12 membranes, each incubation was performed in polystyrene tube (VWR International Ltd; Leicestershire, UK) containing 0.25 ml of membranes diluted in Tris-HCl 50 mM buffer (containing 50 μg of PC12 membranes) with 5 nM [3H] […] Thereafter, samples were filtered through Brandel GB glass fibre filters (MD, USA); pre-soaked in 0.5% polyethylenemine by a Harvester (Brandel; MD, USA). Tubes were washed 3 times with ice cold 50 mM Tris-HCl buffer. Radioactivity in the tubes was counted by scintillation spectrometry using a 300 SL Liquid scintillation counter (Lablogic Systems Limited, UK). Specific binding was determined by subtracting the non-specific (cells treated with Ivermectin 30 μM) value to all the tubes.

PC12 cells = experiment: Sulforhodamine B (SRB) cell viability assay; type: cell-based
Protocol: (§1) Wild-type PC12 cell were provided by Sigma-Aldrich (St. Louis, MO). The culture was routinely plated in 100 mm dishes (Corning) coated with collagen (2 μg/cm^2) and maintained in growth medium with Minimum Essential Medium Eagle (MEM) supplemented with heat-inactivated 10% horse serum (HS) and 5% foetal bovine serum (FBS), 10 mM HEPES, 2 mM L-Glutamine and 1:400 Penicillin/streptomycin solution. Cells were maintained at 37° C. in a humidified atmosphere 5% CO2 and the medium was replaced every 2 days. For splitting, cells were dislodged from the dish using a pipette with medium, with a portion of these replated onto new cultured dishes. Cells were used between passages 12 and 25.
(§2) The cell viability assay used was the sulforhodamine B (SRB) colorimetric assay for toxicity screening. The day before of the experiment cells were seeded onto collagen-coated 96-well plates in a concentration of 40,000 cells/well. Cell concentration was determined by the Fuchs-Rosenthal chamber. […] After treatment, medium was replaced and cells were fixed by adding 100 μl of 10% Trichloroacetic Acid (TCA) for 1 h at 4° C. Thereafter, cells were washed with H2O and stained with 100 μl of a 0.057% SRB solution in 1% Acetic acid (HAc) for 30 minutes at room temperature. After staining cells were washed with 1% HAc for removing the excess of SRB and then incubated with 200 μl of 10 mM Tris base (pH 10.5) and shake it for 5 minutes to solubilise the protein-bound dye. Measurement of the absorbance took place in a VMax Kinetic Microplate Reader (Molecular Devices) at 490 nm.

[3] = cited from earlier work
[4] = Sulforhodamine B (SRB) cell viability assay; type: cell-based; settings: 10 μM, 1 hour, PC12; read-out: cell viability, peptide alone
Protocol: as §1, §2

Sequence of allosteric site on the α7 nicotinic-receptor (Q05941 23-502): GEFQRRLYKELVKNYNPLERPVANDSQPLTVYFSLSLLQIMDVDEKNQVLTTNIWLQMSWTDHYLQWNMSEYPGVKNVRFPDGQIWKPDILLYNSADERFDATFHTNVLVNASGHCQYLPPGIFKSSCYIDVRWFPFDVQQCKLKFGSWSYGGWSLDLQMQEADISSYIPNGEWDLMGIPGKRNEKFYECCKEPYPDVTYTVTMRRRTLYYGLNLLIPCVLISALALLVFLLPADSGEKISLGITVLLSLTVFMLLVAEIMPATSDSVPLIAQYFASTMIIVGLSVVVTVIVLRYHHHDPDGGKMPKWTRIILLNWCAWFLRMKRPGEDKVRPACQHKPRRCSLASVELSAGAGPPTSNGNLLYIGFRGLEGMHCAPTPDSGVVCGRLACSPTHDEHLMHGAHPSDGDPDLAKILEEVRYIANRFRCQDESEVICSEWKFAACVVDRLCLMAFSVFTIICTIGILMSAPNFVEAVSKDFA
T1 sequence (Q05941 23-502): as above

| Compound | binding affinity for the allosteric site on the α7 nicotinic-receptor [1] | binding affinity for the allosteric site on the α7 nicotinic-receptor ([1]; listed as galanthamine) | affinity (Table 3 feature) ([1]; ✓ = Dream Drug feature 'Nanomolar affinity') | % [3H] Ivermectin binding (Mean ± SEM) ([2]; 100 nM competitor, Table 2, N = 6) | % [3H] Ivermectin binding (Mean ± SEM) ([2]; 200 nM competitor, Table 2) | % [3H] Ivermectin binding (Mean ± SEM) ([2]; 500 nM competitor, Table 2) | % [3H] Ivermectin binding (Mean ± SEM) ([2]; 700 nM competitor, Table 2) | % [3H] Ivermectin binding (Mean ± SEM) ([2]; 1 μM competitor, Table 2) | % [3H] Ivermectin binding (Mean ± SEM) ([2]; 2 μM competitor, Table 2) | dose that blocks β-Amyloid (Table 3 feature) (PC12 cells; 'high doses') | minimum effective concentration against β-Amyloid (10 μM) on cell viability (PC12 cells; PC12, FIG. 8) | bioavailability periphery (Table 3 feature) [3] | % [3H] Ivermectin binding (Mean ± SEM) ([2]; 1 nM competitor, Table 1) | % [3H] Ivermectin binding (Mean ± SEM) ([2]; 10 nM competitor, Table 1) | % [3H] Ivermectin binding (Mean ± SEM) ([2]; 100 nM competitor, Table 1) | % [3H] Ivermectin binding (Mean ± SEM) ([2]; 1 μM competitor, Table 1) | % [3H] Ivermectin binding (Mean ± SEM) ([2]; 5 μM competitor, Table 1) | viability at 10 µM [4] |
| --- | --- | --- | --- | --- | --- | --- | --- | --- | --- | --- | --- | --- | --- | --- | --- | --- | --- | --- |
| COc1ccc2c3c1O[C@H]1C[C@@H](O)C=C[C@@]31CCN(C)C2 [Galanthamine] | low affinity | 10 µM | Micromolar affinity | 100.00 ± 11.48% | 97.86 ± 1.40% | 90.96 ± 1.87% | 69.68 ± 9.87% | 67.17 ± 6.64% | 66.32 ± 4.29% | doses (0.1 μM) | 100 nM | High bioavailability |  |  |  |  |  |  |
| AEFHRWSSYMVHWK [T14] | 0.005 µM |  |  |  |  |  |  |  |  |  |  |  | 100 ± 9.91% | 90.92 ± 2.38% | 88.92 ± 3.82% | 85.17 ± 3.03% | 85.36 ± 3.96% | 83 ± 5.38% |
